Test results as given in patent publication US8716318B2, “Pyridone sulfonamides and pyridone sulfamides as MEK inhibitors” (Ardea Biosciences, priority 2006, dated 2014).

Key:
[1] = biological target: T1, human GST-MEK1^CA (Ser218Asp, Ser222Asp) (Homo sapiens, UniProt Q02750, S218D/S222D); assay: MEK1 kinase assay (generation of IC50 data, 33P filter assay with ERK2 and MBP); assay type: biochemical; details: ATP
T1 construct: GST; made in house; host or cells: Escherichia coli
Excerpt: Materials and preparation of reagents: Human GST-MEK1 and the constitutively active allele GST-MEK1^CA (harboring the mutations Ser218Asp and Ser222Asp) were subcloned into the yeast expression vector pGEM4Z (Promega, Madison, Wis.) from the wild type human MEK1 cDNA. GST-MEK1^CA was expressed in Escherichia coli and partially purified using Glutathione Sepharose 4B affinity resin (Amersham Pharmacia Biotech, Piscataway, N.J.). The ERK2 allele was subcloned from MAPK2/Erk2 cDNA (wild type) in pUSEamp (Upstate Biotechnology, Inc., Waltham, Mass.) into the vector pET21a (Novagen, Madison, Wis.) resulting in an N-terminal histidine-tagged mouse ERK2 allele. ERK2 was expressed and purified to homogeneity [Zhang, 1993 #33]. Myelin basic protein (MBP) was purchased from Gibco BRL (Rockville, Md.). EasyTides adenosine 5′-triphosphate (ATP) ([γ-^33P]) (NEN Perkin Elmer, Wellesley, Mass.) was the source of radiolabel for all kinase reactions. Activated Raf-1 (truncated) and activated MAPKinase 2/ERK2 were purchased from Upstate, Inc. (Lake Placid, N.Y.). 4-20% Criterion Precast gels were purchased from Bio-Rad (Hercules, Calif.).
Determination of enzymatic activity: Compounds were diluted from dimethylsulfoxide (DMSO) stocks into 1×HMNDE (20 mM HEPES pH 7.2, 1 mM MgCl2, 100 mM NaCl, 1.25 mM DTT, 0.2 mM EDTA). A typical 25-microliter assay contained 0.002 nanomoles MEK1^CA, 0.02 nanomoles ERK2, 0.25 nanomoles MBP, 0.25 nanomoles unlabeled ATP, and 0.1 μCi [γ^33P] ATP. The screening assay essentially comprised four additions. Five μl of diluted compound were dispensed to 96-well assay plates. Ten μl of 2.5× enzyme cocktail (MEK1^CA and ERK2 only) were then added to each well followed by a pre-incubation for 30 minutes at ambient temperature. Ten μl of 2.5× substrate cocktail (labeled and unlabeled ATP plus MBP) were then added, followed by incubation for 60 minutes at ambient temperature. Finally, 100 μl of 10% trichloroacetic acid (TCA) were added and incubated for 30 minutes at room temperature to halt the reaction and precipitate radiolabeled protein products. Reaction products were harvested on glass fiber 96 well filter plates prewetted with water and 1% pyrophosphate. The filter plate was then washed 5 times with water. Water was displaced by absolute ethanol and the plate was allowed to air dry for 30 minutes at room temperature. A back seal was applied manually and 40 μl of scintillation cocktail were dispensed to each well. A top seal was applied and the plate was counted in the TopCount for two seconds per well.

[2] = EC50 (no method described)
A375 cells = assay: Growth inhibition assay (GI50), A375 cells, CellTiterGlo; assay type: cell-based; details: Homo sapiens, A-375, 48 hr, ATP levels
Procedure: For growth inhibition experiments, A375 cells were plated in white 384-well microplates at 1000 cells/[…]/well. After 24 hr, […] of a 5× drug stock solution was added. All drugs were initially prepared as 200× stocks in DMSO, such that final DMSO concentration was 0.5%. Cells were incubated for 48 hr at 37° C. and ATP levels were determined using CellTiterGlo (Promega, Madison, Wis.). A control MEK inhibitor was used to determine the ATP level corresponding to full growth inhibition and the concentration of test compound that gave ATP levels midway between full growth inhibition and vehicle only ATP levels was determined to be the GI50 using non-linear regression (GraphPad Prism 4).

THP-1 = assay: Growth inhibition assay (GI50), THP-1; assay type: cell-based; details: Homo sapiens

T1 sequence (Q02750 whole entry S218D/S222D): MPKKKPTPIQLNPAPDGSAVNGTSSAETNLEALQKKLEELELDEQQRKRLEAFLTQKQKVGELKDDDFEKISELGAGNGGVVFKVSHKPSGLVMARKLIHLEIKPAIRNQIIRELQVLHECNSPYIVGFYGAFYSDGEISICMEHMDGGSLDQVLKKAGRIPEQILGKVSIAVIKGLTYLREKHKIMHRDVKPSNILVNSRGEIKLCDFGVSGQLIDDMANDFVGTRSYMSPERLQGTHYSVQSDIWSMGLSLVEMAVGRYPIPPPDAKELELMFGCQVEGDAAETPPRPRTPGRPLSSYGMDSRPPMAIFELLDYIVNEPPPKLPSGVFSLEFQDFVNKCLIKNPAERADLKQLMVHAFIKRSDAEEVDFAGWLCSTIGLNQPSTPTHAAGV

Row | SMILES | IC50 [1] [nM] | EC50 [2] [nM] | GI50 (A375 cells) [nM] | GI50 (THP-1) [nM]
1 | CN(C)S(=O)(=O)Nc1cn(C)c(=O)cc1Nc1ccc(I)cc1F [Example 6, N-(4-(2-fluoro-4-iodophenylamino)-1-methyl-6-oxo-1,6-dihydropyridin-3-yl)dimethyl-1-sulfamide] | > 1000 | 500 to 1000 | 500 to 1000 | 100 to 500
2 | Cn1cc(NS(=O)(=O)C2CC2)c(Nc2ccc(Br)cc2F)cc1=O [Example 8, Cyclopropanesulfonic acid [4-(4-bromo-2-fluoro-phenylamino)-1-methyl-6-oxo-1,6-dihydro-pyridin-3-yl]-amide] | > 1000 |  |  | 
3 | Cn1cc(NS(=O)(=O)C2CC2)c(Nc2ccc(Br)cc2F)c(F)c1=O [Example 7, Cyclopropanesulfonic acid [4-(4-bromo-2-fluoro-phenylamino)-5-fluoro-1-methyl-6-oxo-1,6-dihydro-pyridin-3-yl]-amide] | 500 to 1000 |  | > 1000 | > 1000
4 | Cn1cc(NS(=O)(=O)NCC(O)CO)c(Nc2ccc(I)cc2F)cc1=O (stereo not drawn) [Example 13] | > 1000 |  | > 1000 | > 1000
5 | Cn1cc(NS(=O)(=O)C2(CC(O)CO)CC2)c(Nc2ccc(I)cc2F)cc1=O (stereo not drawn) [Example 2, 1-(2,3-dihydroxypropyl)-N-(4-(2-fluoro-4-iodophenylamino)-1-methyl-6-oxo-1,6-dihydropyridin-3-yl)cyclopropane-1-sulfonamide] | 500 to 1000 | 500 to 1000 | > 1000 | > 1000
6 | Cn1cc(NS(=O)(=O)C2CC2)c(Nc2ccc(I)cc2F)cc1=O [Example 1, N-(4-(2-fluoro-4-iodophenylamino)-1-methyl-6-oxo-1,6-dihydropyridin-3-yl)cyclopropanesulfonamide] | 500 to 1000 | < 100 | < 100 | < 100

More lines, now with the values ahead:

Row | IC50 [1] [nM] | EC50 [2] [nM] | GI50 (A375 cells) [nM] | GI50 (THP-1) [nM] | SMILES
7 | < 100 | < 100 | < 100 | > 1000 | Cn1cc(NS(=O)(=O)C2CC2)c(Nc2ccc(I)cc2F)c(F)c1=O [Example 4, N-(5-fluoro-4-(2-fluoro-4-iodophenylamino)-1-methyl-6-oxo-1,6-dihydropyridin-3-yl)cyclopropanesulfonamide]
8 | < 100 | < 100 |  |  | Cc1c(Nc2ccc(I)cc2F)c(NS(=O)(=O)C2CC2)cn(C)c1=O [Example 5, N-(4-(2-fluoro-4-iodophenylamino)-1,5-dimethyl-6-oxo-1,6-dihydropyridin-3-yl)cyclopropanesulfonamide]
9 | 500 to 1000 | 100 to 500 | > 1000 | > 1000 | Cn1cc(NS(=O)(=O)C2CC2)c(Nc2ccc(Br)cc2F)c(Cl)c1=O [Example 3, N-(5-chloro-4-(2-fluoro-4-bromophenylamino)-1-methyl-6-oxo-1,6-dihydropyridin-3-yl)cyclopropanesulfonamide]
10 | 100 to 500 | < 100 |  |  | Cc1c(Nc2ccc(I)cc2F)c(NS(=O)(=O)C2(Cl)CC2)cn(C)c1=O [Example 10, 1-Chloro-Cyclopropanesulfonic acid [4-(2-fluoro-4-iodo-phenylamino)-1,5-dimethyl-6-oxo-1,6-dihydro-pyridin-3-yl]-amide]
11 | < 100 | < 100 |  |  | Cn1cc(NS(=O)(=O)C2(CC(=O)CO)CC2)c(Nc2ccc(I)cc2F)c(F)c1=O [Example 12, 1-(3-Hydroxy-2-oxo-propyl)-cyclopropanesulfonic acid [5-fluoro-4-(2-fluoro-4-iodo-phenylamino)-1-methyl-6-oxo-1,6-dihydro-pyridin-3-yl]-amide]
12 | < 100 | < 100 | 500 to 1000 | > 1000 | Cn1cc(NS(=O)(=O)C2CC2)c(Nc2ccc(I)cc2F)c(Cl)c1=O [Example 9, Cyclopropanesulfonic acid [5-chloro-4-(2-fluoro-4-iodo-phenylamino)-1-methyl-6-oxo-1,6-dihydro-pyridin-3-yl]-amide]
13 | < 100 | 100 to 500 |  |  | Cn1cc(NS(=O)(=O)C2(CC(O)CO)CC2)c(Nc2ccc(I)cc2F)c(F)c1=O (stereo not drawn) [Example 11, 1-(2,3-Dihydroxy-propyl)-cyclopropanesulfonic acid [5-fluoro-4-(2-fluoro-4-iodo-phenylamino)-1-methyl-6-oxo-1,6-dihydro-pyridin-3-yl]-amide]
